Measured values reported in patent publication US6878702B2, “Anti-inflammatory agents” (Orion Corporation, priority 2000, dated 2005).

Key:
[1] = system: mitochondrial KATP channel; test: Mitochondrial ATP dependent potassium channel opening: membrane potential (ΔΨ) of isolated liver mitochondria, rhodamine 123; type: biochemical, rat; conditions: for ΔΨ of rat liver mitochondria in the choline chloride medium / ΔΨ of rat liver mitochondria in KCl medium: <2.58 μM concentration; for ΔΨ of rat liver mitochondria in KCl medium: respiring only on endogenous substrates, KCl medium with 400 μM ATP and 1 mg oligomycin/mg protein, FIG. 2; for effect on ΔΨ in presence of 5-hydroxydecanoate (5-HD), selective blocker of mitochondrial KATP channel: with 5-HD, data not shown
Excerpt: In respiring mitochondria, the decrease in ΔΨ due to the KATP channel opening is compensated by an increased respiration rate. When mitochondria respires only on endogenous substrates, and phosphorylation is blocked by oligomycin, the respiration rate is sufficient to generate a high ΔΨ. However, opening of KATP channels leads to a decrease in ΔΨ, which could not be compensated by increased respiration rate. In such a model, opening of KATP channel is unmasked, and can be recorded. This model was applied to test if opening could be induced by dextrosimendan and levosimendan.
Mitochondria were isolated from rat livers by differential centrifugation in medium containing 210 mM mannitol, 70 mM sucrose, 10 mM Hepes, 1 mM EGTA and 5 mg/ml bovine serum albumin, pH 7.4. The mitochondrial protein concentration was determined by modified Biuret method. Oxygen consumption of isolated liver mitochondria was recorded at 25° C. by means of the Clark-type electrode system in the KCl medium (100 mM KCl, 2 mM KH2PO4, 10 mM HEPES, 1 mM MgCl2, pH 7.4 with TRIZMA base) or choline chloride medium (100 mM choline chloride, 2 mM NaH2PO4, 10 mM HEPES, 1 mM MgCl2, pH 7.4 with TRIZMA base). The final mitochondrial protein concentration used in experiments was 1 mg protein/ml. For studies of respiring mitochondria, 5 mM succinate in the presence of 5 μM rotenone was used as substrate.
Membrane potential (ΔΨ) of liver mitochondria was measured with rhodamine 123 as a fluorescent probe using the excitation at 503 nm and emission at 527 nm at room temperature with the Hitachi F4000 fluorometer. The difference in fluorescense between mitochondria with addition of FCCP (0.4 μM) and without it was taken as 100%, and decrease in membrane potential by the tested compounds was expressed in % of FCCP effect.

[2] = system: carrageenan-induced rat paw edema; test: Carrageenan-induced paw edema in rats; type: in vivo; conditions: 3 h, male Wistar rats
Description: The acute inflammation was induced to the male Wistar rats by an injection of 0.1 ml of 1 or 2% lambda-carrageenan solution into the subplantar tissue of the right hind paw (=1 or 2 mg/paw). Three hours after the carrageenan injection the rats were killed. Both hind paws were cut off just above the heel and weighed. The test compounds (levosimendan and dextrosimendan) were administered orally 30 minutes before the induction of inflammation using dosing levels:
Control rats were included in each experiment. The difference between the weight of the right and the left hind paw was regarded as swelling. 9-10 animals were included in each group.

| melting point [°C] | SMILES | ΔΨ of rat liver mitochondria in the choline chloride medium [1] | ΔΨ of rat liver mitochondria in KCl medium [1] | effect on ΔΨ in presence of 5-hydroxydecanoate (5-HD), selective blocker of mitochondrial KATP channel [1] | carrageenan-induced rat paw edema (swelling, weight difference of hind paws) ([2]; carrageenan 2 mg/paw, 10, 30 and 100 mg/kg orally 30 min before, FIG. 3b) | carrageenan-induced rat paw edema (swelling, weight difference of hind paws) ([2]; carrageenan 1 mg/paw, 0.1, 1 and 10 mg/kg orally 30 min before, FIG. 3a) |
| --- | --- | --- | --- | --- | --- | --- |
| – | CC1CC(=O)NN=C1c1ccc(NN=C(C#N)C#N)cc1 (single isomer, unassigned; (+)) [Dextrosimendan] | did not significantly change | decreased | abolished | inhibited the carrageenan-induced rat paw edema significantly | – |
| 125 to 128 | CC1SC(=O)NN=C1c1ccc(NN=C(C#N)C#N)cc1 (single isomer, unassigned; (+)) [compound B, (+)-[[4-(3,6-dihydro-6-methyl-2-oxo-2H-1,3,4-thiadiazin-5-yl)phenyl]hydrazono]propanedinitrile] | – | – | – | – | – |
| – | C[C@@H]1CC(=O)NN=C1c1ccc(NN=C(C#N)C#N)cc1 [levosimendan, reference compound] | did not significantly change | decreased | abolished | – | inhibited the carrageenan-induced rat paw edema significantly |
